Assay results from US20010044437A1, “Methods for reducing uric acid levels” (priority 2000, published 2001).

System: serum uric acid
Test: Serum uric acid during 28-day once-daily oral dosing, placebo-controlled study in 48 subjects (Example 34)
Assay type: in vivo, human
Description: In another study, 48 subjects were divided into four groups, A, B, C and D, and administered the noted amount of the compound of Example 3. Each group was composed of 12 subjects of whom 9 received the compound and 3 received placebo. The non-placebo members of group A received 50 mg of compound, administered orally once a day for 28 days as a single 50 mg tablet. The non-placebo members of group B received 200 mg of compound administered orally once a day for 28 days as a single 200 mg tablet. The non-placebo members of group C received 500 mg of compound administered orally once a day for 28 days as two 50 mg tablets and two 200 mg tablets. The non-placebo members of group D received 800 mg of compound administered orally once a day for 28 days as four 200 mg tablets. The 3 placebo members of each group, received an amount of placebo, as a tablet, equivalent to the amount of test compound—50 mg placebo for group A, 200 mg placebo for group B, 500 mg placebo for group C and 800 mg placebo for group D. Each subject received a single dose of either compound or placebo for 28 days. The subjects were confined at the clinical site beginning the day before dose administration until 72 hours after the final dose administration on Day 28 and returned for an outpatient visit on Day 35.
Uric acid levels were measured prior to beginning the study (screening), on the day immediately prior to commencement of the study (day-1), and then as noted in the table. Hours indicates the time since the last dose was administered. For example, Day 7, 0 hour indicates the time the serum uric acid level at the time the dose was administered and Day 7, 2 hour indicates the uric acid level two hours after the adminstration that day. Further, the Day 30, 60 hour level is the serum uric acid level measured 60 hours (on Day 30) after the last dose was administered on Day 28. The uric acid levels are presented in mg/dL as a mean of all subjects in each group.

O=C(O)Cn1cc(Cc2nc3c(F)c(F)cc(F)c3s2)c2ccccc21 [Example 3, 3-(4,5,7-Trifluorobenzothiazol-2-yl)methyl-indole-N-acetic Acid]
Uric Acid Level (mean of all subjects in each group) (group B 200 mg orally once a day, Day 7 24 Hour): 2.70 mg/dL | Uric Acid Level (mean of all subjects in each group) (group B 200 mg orally once a day, Day 14 0 Hour): 2.87 mg/dL | Uric Acid Level (mean of all subjects in each group) (group C 500 mg orally once a day, Day 1 0 Hour): 5.16 mg/dL | Uric Acid Level (mean of all subjects in each group) (group C 500 mg orally once a day, Day 1 0.5 Hour): 5.08 mg/dL | Uric Acid Level (mean of all subjects in each group) (group C 500 mg orally once a day, Day 1 1 Hour): 4.81 mg/dL | Uric Acid Level (mean of all subjects in each group) (group C 500 mg orally once a day, Day 1 2 Hour): 4.27 mg/dL | Uric Acid Level (mean of all subjects in each group) (group C 500 mg orally once a day, Day 1 3 Hour): 3.84 mg/dL | Uric Acid Level (mean of all subjects in each group) (group C 500 mg orally once a day, Day 1 4 Hour): 3.54 mg/dL | Uric Acid Level (mean of all subjects in each group) (group C 500 mg orally once a day, Day 1 6 Hour): 3.30 mg/dL | Uric Acid Level (mean of all subjects in each group) (group C 500 mg orally once a day, Day 1 8 Hour): 2.82 mg/dL | Uric Acid Level (mean of all subjects in each group) (group C 500 mg orally once a day, Day 1 10 Hour): 2.59 mg/dL | Uric Acid Level (mean of all subjects in each group) (group C 500 mg orally once a day, Day 1 12 Hour): 2.56 mg/dL | Uric Acid Level (mean of all subjects in each group) (group C 500 mg orally once a day, Day 1 16 Hour): 2.36 mg/dL | Uric Acid Level (mean of all subjects in each group) (group C 500 mg orally once a day, Day 1 24 Hour): 2.74 mg/dL | Uric Acid Level (mean of all subjects in each group) (group C 500 mg orally once a day, Day 3): 2.21 mg/dL | Uric Acid Level (mean of all subjects in each group) (group C 500 mg orally once a day, Day 7 0 Hour): 2.17 mg/dL | Uric Acid Level (mean of all subjects in each group) (group C 500 mg orally once a day, Day 7 0.5 Hour): 2.21 mg/dL | Uric Acid Level (mean of all subjects in each group) (group C 500 mg orally once a day, Day 7 1 Hour): 2.16 mg/dL | Uric Acid Level (mean of all subjects in each group) (group C 500 mg orally once a day, Day 7 2 Hour): 2.04 mg/dL | Uric Acid Level (mean of all subjects in each group) (group C 500 mg orally once a day, Day 7 3 Hour): 1.90 mg/dL | Uric Acid Level (mean of all subjects in each group) (group C 500 mg orally once a day, Day 7 4 Hour): 1.88 mg/dL | Uric Acid Level (mean of all subjects in each group) (group C 500 mg orally once a day, Day 7 6 Hour): 2.19 mg/dL | Uric Acid Level (mean of all subjects in each group) (group C 500 mg orally once a day, Day 7 8 Hour): 2.10 mg/dL | Uric Acid Level (mean of all subjects in each group) (group C 500 mg orally once a day, Day 7 10 Hour): 2.08 mg/dL | Uric Acid Level (mean of all subjects in each group) (group C 500 mg orally once a day, Day 7 12 Hour): 1.92 mg/dL | Uric Acid Level (mean of all subjects in each group) (group C 500 mg orally once a day, Day 7 16 Hour): 1.74 mg/dL | Uric Acid Level (mean of all subjects in each group) (group C 500 mg orally once a day, Day 7 24 Hour): 2.23 mg/dL | Uric Acid Level (mean of all subjects in each group) (group C 500 mg orally once a day, Day-1 (before dosing)): 5.10 mg/dL | Uric Acid Level (mean of all subjects in each group) (group C 500 mg orally once a day, Screening (before dosing)): 5.28 mg/dL | Uric Acid Level (mean of all subjects in each group) (group D 800 mg orally once a day, Day 1 0 Hour): 5.64 mg/dL | Uric Acid Level (mean of all subjects in each group) (group D 800 mg orally once a day, Day 1 0.5 Hour): 5.57 mg/dL | Uric Acid Level (mean of all subjects in each group) (group D 800 mg orally once a day, Day 1 1 Hour): 5.12 mg/dL | Uric Acid Level (mean of all subjects in each group) (group D 800 mg orally once a day, Day 1 2 Hour): 4.46 mg/dL | Uric Acid Level (mean of all subjects in each group) (group D 800 mg orally once a day, Day 1 3 Hour): 3.97 mg/dL | Uric Acid Level (mean of all subjects in each group) (group D 800 mg orally once a day, Day 1 4 Hour): 3.66 mg/dL | Uric Acid Level (mean of all subjects in each group) (group D 800 mg orally once a day, Day 1 6 Hour): 3.37 mg/dL | Uric Acid Level (mean of all subjects in each group) (group D 800 mg orally once a day, Day 1 8 Hour): 2.81 mg/dL | Uric Acid Level (mean of all subjects in each group) (group D 800 mg orally once a day, Day 1 10 Hour): 2.49 mg/dL | Uric Acid Level (mean of all subjects in each group) (group D 800 mg orally once a day, Day 1 12 Hour): 2.42 mg/dL | Uric Acid Level (mean of all subjects in each group) (group D 800 mg orally once a day, Day 1 16 Hour): 2.13 mg/dL | Uric Acid Level (mean of all subjects in each group) (group D 800 mg orally once a day, Day 1 24 Hour): 2.64 mg/dL | Uric Acid Level (mean of all subjects in each group) (group D 800 mg orally once a day, Day 3): 2.19 mg/dL | Uric Acid Level (mean of all subjects in each group) (group D 800 mg orally once a day, Day 7 0 Hour): 2.18 mg/dL | Uric Acid Level (mean of all subjects in each group) (group D 800 mg orally once a day, Day 7 0.5 Hour): 2.10 mg/dL | Uric Acid Level (mean of all subjects in each group) (group D 800 mg orally once a day, Day 7 1 Hour): 2.07 mg/dL | Uric Acid Level (mean of all subjects in each group) (group D 800 mg orally once a day, Day 7 2 Hour): 1.98 mg/dL | Uric Acid Level (mean of all subjects in each group) (group D 800 mg orally once a day, Day 7 3 Hour): 1.90 mg/dL | Uric Acid Level (mean of all subjects in each group) (group D 800 mg orally once a day, Day 7 4 Hour): 1.90 mg/dL | Uric Acid Level (mean of all subjects in each group) (group D 800 mg orally once a day, Day 7 6 Hour): 2.23 mg/dL | Uric Acid Level (mean of all subjects in each group) (group D 800 mg orally once a day, Day 7 8 Hour): 2.21 mg/dL | Uric Acid Level (mean of all subjects in each group) (group D 800 mg orally once a day, Day 7 10 Hour): 2.20 mg/dL | Uric Acid Level (mean of all subjects in each group) (group D 800 mg orally once a day, Day 7 12 Hour): 2.10 mg/dL | Uric Acid Level (mean of all subjects in each group) (group D 800 mg orally once a day, Day 7 16 Hour): 1.78 mg/dL | Uric Acid Level (mean of all subjects in each group) (group D 800 mg orally once a day, Day 7 24 Hour): 2.26 mg/dL | Uric Acid Level (mean of all subjects in each group) (group D 800 mg orally once a day, Day-1 (before dosing)): 5.54 mg/dL | Uric Acid Level (mean of all subjects in each group) (group D 800 mg orally once a day, Screening (before dosing)): 5.68 mg/dL
